{"source": "patent US4032659A", "about": "(priority 1975, dated 1977)", "key": {"Herpes virus [1]": {"tested_on": "Herpes virus", "format": "in vivo, mouse", "conditions": "oral"}, "Herpes virus [2]": {"tested_on": "Herpes virus", "assay": "Herpes virus in eggs (chick embryo survival)", "format": "in vivo, chicken eggs", "conditions": "all doses"}, "virus infections": {"tested_on": "virus infections", "assay": "Antiviral screening program, several viruses", "conditions": "mouse, in vivo"}, "[3]": {"tested_on": "Influenza Ann Arbor virus", "assay": "Chemoprophylaxis of Influenza Ann Arbor (A1) virus infection in mice", "format": "in vivo, mouse"}, "Influenza PR 8 virus": {"tested_on": "Influenza PR 8 virus", "assay": "Chemoprophylaxis of Influenza PR 8 virus infection in mice", "format": "in vivo, mouse", "conditions": "oral"}, "[4]": {"conditions": "subcutaneous, total dose 500 μg"}, "[5]": {"conditions": "subcutaneous, total dose .00005 μg"}, "[6]": {"conditions": "subcutaneous, total dose .0005 μg"}, "[7]": {"conditions": "subcutaneous, total dose .005 μg"}, "[8]": {"conditions": "subcutaneous, total dose .05 μg"}}, "note": "Structures can show the parent of a compound that is named as a salt. Where two headings read alike, the source gives them in different places.", "data": [{"compound": "NN", "note": "[hydrazine]", "values": [{"measurement": "No. animals surviving after 7 days", "setting": "Herpes virus [1]; total dose 5 μg", "value": 7}, {"measurement": "No. animals surviving after 7 days", "setting": "Herpes virus [1]; total dose .0005 μg", "value": 5}, {"measurement": "No. animals surviving when 19/20 controls are dead", "setting": "Herpes virus [1]; total dose .0005 μg", "value": 5}, {"measurement": "No. animals surviving after 7 days", "setting": "Herpes virus [1]; total dose .005 μg", "value": 6}, {"measurement": "No. animals surviving when 19/20 controls are dead", "setting": "Herpes virus [1]; total dose .005 μg", "value": 3}, {"measurement": "No. animals surviving after 7 days", "setting": "Herpes virus [1]; total dose .05 μg", "value": 5}, {"measurement": "No. animals surviving after 7 days", "setting": "Herpes virus [1]; total dose .5 μg", "value": 6}, {"measurement": "No. animals surviving when 19/20 controls are dead", "setting": "Herpes virus [1]; total dose .5 μg", "value": 1}, {"measurement": "No. Living Longer Than Controls, total", "setting": "Herpes virus [2]", "value": 3}]}, {"compound": "N-hydroxyphthalamide", "values": [{"measurement": "activity (in words)", "setting": "virus infections", "value": "active in the practice of this invention"}]}, {"compound": "NNc1nncc2ccccc12", "note": "[Hydralazine, hydralazine, reference compound]", "values": [{"measurement": "activity (in words)", "setting": "virus infections", "value": "effective against Herpes virus"}]}, {"compound": "NN", "note": "[hydrazine, hydrate]", "values": [{"measurement": "No. animals surviving after 5 days", "setting": "[3]; oral, total dose 5 μg", "value": 4}, {"measurement": "Survivors", "setting": "[3]; oral, total dose 5 μg", "value": 0}, {"measurement": "No. animals surviving after 5 days", "setting": "[3]; oral, total dose 50 μg", "value": 4}, {"measurement": "Survivors", "setting": "[3]; oral, total dose 50 μg", "value": 0}, {"measurement": "No. animals surviving after 5 days", "setting": "[3]; oral, total dose 500 μg", "value": 5}, {"measurement": "Survivors", "setting": "[3]; oral, total dose 500 μg", "value": 0}, {"measurement": "No. animals surviving after 5 days", "setting": "[3]; oral, total dose .00005 μg", "value": 6}, {"measurement": "Survivors", "setting": "[3]; oral, total dose .00005 μg", "value": 0}, {"measurement": "No. animals surviving after 5 days", "setting": "[3]; oral, total dose .0005 μg", "value": 6}, {"measurement": "Survivors", "setting": "[3]; oral, total dose .0005 μg", "value": 0}, {"measurement": "No. animals surviving after 5 days", "setting": "[3]; oral, total dose .005 μg", "value": 3}, {"measurement": "Survivors", "setting": "[3]; oral, total dose .005 μg", "value": 0}, {"measurement": "No. animals surviving after 5 days", "setting": "[3]; oral, total dose .05 μg", "value": 3}, {"measurement": "Survivors", "setting": "[3]; oral, total dose .05 μg", "value": 1}, {"measurement": "No. animals surviving after 5 days", "setting": "[3]; oral, total dose .5 μg", "value": 6}, {"measurement": "Survivors", "setting": "[3]; oral, total dose .5 μg", "value": 0}, {"measurement": "No. animals surviving after 5 days", "setting": "[3]; subcutaneous, total dose 5 μg", "value": 6}, {"measurement": "No. animals surviving after 7 days", "setting": "[3]; subcutaneous, total dose 5 μg", "value": 6}, {"measurement": "Survivors", "setting": "[3]; subcutaneous, total dose 5 μg, hydrate", "value": 3}, {"measurement": "No. animals surviving after 5 days", "setting": "[3]; subcutaneous, total dose 50 μg", "value": 4}, {"measurement": "No. animals surviving after 7 days", "setting": "[3]; subcutaneous, total dose 50 μg", "value": 7}, {"measurement": "No. animals surviving after 5 days", "setting": "[3]; [4]", "value": 3}, {"measurement": "No. animals surviving after 7 days", "setting": "[3]; [4]", "value": 6}, {"measurement": "Survivors", "setting": "[3]; [4]", "value": 0}, {"measurement": "No. animals surviving after 5 days", "setting": "[3]; [5]", "value": 1}, {"measurement": "No. animals surviving after 7 days", "setting": "[3]; [5]", "value": 1}, {"measurement": "Survivors", "setting": "[3]; [5]", "value": 0}, {"measurement": "No. animals surviving after 5 days", "setting": "[3]; [6]", "value": 7}, {"measurement": "No. animals surviving after 7 days", "setting": "[3]; [6]", "value": 5}, {"measurement": "No. animals surviving after 5 days", "setting": "[3]; [7]", "value": 4}, {"measurement": "No. animals surviving after 7 days", "setting": "[3]; [7]", "value": 3}, {"measurement": "No. animals surviving after 5 days", "setting": "[3]; [8]", "value": 6}, {"measurement": "No. animals surviving after 7 days", "setting": "[3]; [8]", "value": 4}, {"measurement": "No. animals surviving after 5 days", "setting": "[3]; subcutaneous, total dose .5 μg", "value": 5}, {"measurement": "No. animals surviving after 7 days", "setting": "[3]; subcutaneous, total dose .5 μg", "value": 7}, {"measurement": "No. animals surviving after 10 days", "setting": "Influenza PR 8 virus; total dose 5 μg", "value": 1}, {"measurement": "Survivors", "setting": "Influenza PR 8 virus; total dose 5 μg", "value": 0}, {"measurement": "No. animals surviving after 10 days", "setting": "Influenza PR 8 virus; total dose 50 μg", "value": 1}, {"measurement": "Survivors", "setting": "Influenza PR 8 virus; total dose 50 μg", "value": 0}, {"measurement": "No. animals surviving after 7 days", "setting": "Influenza PR 8 virus; total dose .000005 μg", "value": 4}, {"measurement": "No. animals surviving after 7 days", "setting": "Influenza PR 8 virus; total dose .00005 μg", "value": 0}, {"measurement": "No. animals surviving when 18/20 of controls are dead", "setting": "Influenza PR 8 virus; total dose .00005 μg", "value": 4}, {"measurement": "No. animals surviving after 10 days", "setting": "Influenza PR 8 virus; total dose .0005 μg", "value": 1}, {"measurement": "No. animals surviving when 18/20 of controls are dead", "setting": "Influenza PR 8 virus; total dose .0005 μg", "value": 3}, {"measurement": "Survivors", "setting": "Influenza PR 8 virus; total dose .0005 μg, hydrate", "value": 1}, {"measurement": "No. animals surviving after 7 days", "setting": "Influenza PR 8 virus; total dose .005 μg", "value": 5}, {"measurement": "No. animals surviving after 10 days", "setting": "Influenza PR 8 virus; total dose .005 μg", "value": 3}, {"measurement": "No. animals surviving when 18/20 of controls are dead", "setting": "Influenza PR 8 virus; total dose .005 μg", "value": 1}, {"measurement": "No. animals surviving after 10 days", "setting": "Influenza PR 8 virus; total dose .05 μg", "value": 0}, {"measurement": "No. animals surviving when 18/20 of controls are dead", "setting": "Influenza PR 8 virus; total dose .05 μg", "value": 1}, {"measurement": "No. animals surviving after 10 days", "setting": "Influenza PR 8 virus; total dose .5 μg", "value": 1}, {"measurement": "No. animals surviving when 18/20 of controls are dead", "setting": "Influenza PR 8 virus; total dose .5 μg", "value": 1}, {"measurement": "Survivors", "setting": "Influenza PR 8 virus; total dose .5 μg", "value": 1}, {"measurement": "activity (in words)", "setting": "virus infections", "value": "active on Influenza PR 8, Vaccinia in the mouse tail, Herpes in eggs, Herpes in mice, and Influenza Ann Arbor"}]}, {"compound": "NNC(N)=O", "note": "[semicarbazide, hydrochloride]", "values": [{"measurement": "No. animals surviving when 19/20 controls are dead", "setting": "Herpes virus [1]; total dose 5 μg", "value": 4}, {"measurement": "No. animals surviving when 19/20 controls are dead", "setting": "Herpes virus [1]; total dose .05 μg", "value": 4}, {"measurement": "activity (in words)", "setting": "virus infections", "value": "effective against Influenza PR 8 virus, Vaccinia virus in the mouse tail, Herpes virus in eggs, Herpes virus in mice, Neurovaccinia, and Influenza Ann Arbor virus"}]}]}
